Read-outs that look alike come from different tables or passages of the source. No end group written: not given here.
Tested on: infection of CD4+ human cells (CD4 expressing Hela P4 cells) by HIV-1
Format: cell-based
Conditions: for IC50: FIG. 3; for relative infection inhibition activity within the peptide set: peptides assayed at 100 μg/ml, FIG. 2 / FIG. 6
Description: Biological Activity Results of C2 peptide analogs Cell Infection Inhibition Assay The assay consisted of CD4 expressing Hela P4 cells containing the […] reporter gene placed downstream the HIV-LTR promotor. These cells, were seeded 24 hours prior to viral infection at a density of 5×10^5 […] in 24 well culture plates (TPP model by Beyneix). 50 μL of virus solution prepared from CEM infected cells' supernatant, were incubated for 1 hour with the assayed peptides at the required concentrations, at 4° C. 10 μg of anti CD4 monoclonal antibodies 13B8.2 or Leu3A were used as control. After incubation the virus solution was diluted to a total volume of 1 ml and was added to the Hela P4 cells. The cells were incubated at these conditions for 3 days after which their infection rate was assayed according to the […] activity in the cells extract.
The cells were washed well, harvested and disintegrated in a buffer containing 60 mM Na2HPO4, 40 mM NaH2PO4, 10 mM KCl, 1 mM MgSO4, 50 mM β-mercaptoethanol, 2.5 mM EDTA, 0.125% NP40, 0.125% triton, 20% glycerol, 0.2 mM PMSF and 100 U/ml approtinin. The cells extract was cleaned by centrifuge at 4° C. for 15 min at 13,000 rpm. β-galactosidase activity was determined by incubation of 150 μL of total cell extract at 37° C. for 2 hours in the presence of 6 mM ONPG (O-Nitrophenyl-β-D-galactopyranoside) in a buffer containing 80 mM Na2HPO4, 1 mM β-mercaptoethanol and 10 mMMgCl2, followed by absorption measurement at 410 nm. The β-galactosidase activity was normalized according to the total protein quantity in the assay.
This figure includes, for comparison, the inhibition of the lead peptide C2-1, as determined in the cell infection inhibition assay.

[1] = average of peptides C2-2 and C2-3, Hela P4 cells, read-out: average IC50 value

Compound	IC50 (CD4 expressing Hela P4 cells, several concentrations, read-out: IC50 (infection inhibition)) [µM]	relative infection inhibition activity within the peptide set	IC50 [1] [µM]	inhibition of infection (C3 peptides, FIG. 6: assayed at 100 μg/ml, mean of 3 assays, text: C3-25 at 100 μM) [%]
N=C(N)NCCC[C@@H]1NC(=O)CCC(=O)N[C@@H](CCC(N)=O)C(=O)NCC(=O)N[C@@H](CO)C(=O)N[C@@H](Cc2ccccc2)C(=O)N(CC(N)=O)CCNC1=O [Peptide C2-1]	33	most active	–	–
N=C(N)NCCC[C@@H]1NC(=O)CCCC(=O)N[C@@H](CCC(N)=O)C(=O)NCC(=O)N[C@@H](CO)C(=O)N[C@@H](Cc2ccccc2)C(=O)N(CC(N)=O)CCNC1=O [Peptide C2-2]	–	most active	81 ± 2	–
N=C(N)NCCC[C@@H]1NC(=O)CCCCC(=O)N[C@@H](CCC(N)=O)C(=O)NCC(=O)N[C@@H](CO)C(=O)N[C@@H](Cc2ccccc2)C(=O)N(CC(N)=O)CCNC1=O [Peptide C2-3]	–	most active	81 ± 2	–
C3-19: backbone cyclic C3 peptide of Scheme 1 (SEQ ID NO:7) (RQGSGF; also: backbone cyclic) [Peptide C3-19]	–	–	–	64±12

From patent US20080312140A1, “Compositions and Methods for Preventing or Treating Hiv Infection” (priority 2005, published 2008)
